Laboratory results reported in PubChem BioAssay (NCI).
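Cells were grown in 96-well plates and exposed to each compound for 48 hours at five concentrations; endpoints were interpolated linearly between bracketing concentrations, or set to the highest concentration if not reached. The concentration for full growth arrest is given as TGI.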

Columns and labels:
Experiment in all cases: NCI anticancer screen, dose series, 48 h
[1] = system: HL-60(TB) leukemia
[2] = system: CCRF-CEM leukemia
[3] = system: SF-268 CNS
[4] = system: SK-OV-3 ovarian
[5] = system: HCT-15 colon
[6] = system: OVCAR-5 ovarian
[7] = system: NCI-H460 lung
[8] = system: SF-539 CNS
[9] = system: HT29 colon
[10] = system: MALME-3M melanoma
[11] = system: HOP-62 NSCLC
[12] = system: IGROV1 ovarian
[13] = system: ACHN renal

SMILES | TGI [1] [µM] | TGI [2] [µM] | TGI [3] [µM] | TGI [4] [µM] | TGI [5] [µM] | TGI [6] [µM] | TGI [7] [µM] | TGI [8] [µM] | TGI [9] [µM] | TGI [10] [µM] | TGI [11] [µM] | TGI [12] [µM] | TGI [13] [µM]
Cc1cn(C2CC(OC(c3ccccc3)(c3ccccc3)c3ccccc3)C(COC(c3ccccc3)(c3ccccc3)c3ccccc3)O2)c(=O)[nH]c1=O (stereo unspecified) | > 100 | > 100 | > 100 | > 100 | > 100 | > 100 | > 100 | > 100 | > 100 | > 100 | > 100 | > 100 | > 100
COc1cc(-c2c3c(cc4c2OCO4)[C@@H](Nc2ccc4c(c2)Cc2cc(N[C@@H]5c6cc7c(cc6C(c6cc(OC)c(O)c(OC)c6)[C@H]6C(=O)OC[C@H]56)OCO7)ccc2-4)[C@H]2COC(=O)[C@@H]2C3)cc(OC)c1O (stereo partly specified) | > 100 | > 100 | > 100 | 41.1 | > 100 | 88.3 | > 100 | 19 | 47.2 | 60.4 | 57.5 | 21.3 | > 100
O=C(c1ccccc1)[C@H]1Nc2cnccc2C2c3ccccc3CC21 (stereo partly specified) | 23.2 | 17.8 | 59.9 | 44.8 | 26.9 | 74.1 | 33.9 | > 62.6 | 50.5 | 27.4 | > 71.4 | > 58.6 | 37.1
Cc1ccc2c(c1)C(=O)/C(=C\c1ccc(Cl)cc1)CCS2(=O)=O | 5.26 | > 20.8 | 16.1 | 22.4 | 5.01 | > 42.5 | 5.02 | 4.52 | 6.54 | 6.42 | > 47.2 | 7.56 | 3.83
OCC1OC(O[C@H]2CN3[C@H](O)[C@@H](O)[C@H](O)[C@H]3C2O)C(O)C(O)C1O (stereo partly specified) | > 100 | > 100 | > 100 | > 100 | > 100 | > 100 | > 100 | > 100 | > 100 | > 100 | > 100 | > 100 | > 100
COc1cc(/C=C/C(=O)O)ccc1OS(=O)(=O)O | > 100 | > 100 | > 100 | > 100 | > 100 | > 100 | > 100 | > 100 | > 100 | > 100 | > 100 | > 100 | > 100
CC[P+](C#Cc1ccccc1)(c1ccccc1)c1ccccc1 | 1.05 | 1.69 | 8.71 | 9.43 | 17.7 | 16.3 | 11.2 | 4.01 | 6.98 | 4.19 | 8.94 | 11.9 | 13
